This note sets out measurements from EPA's ToxValDB 9.5 (doi:10.2903/j.efsa.2016.4569).

One series deals with Tagia sp. Conditions: for LC50: acute, mortality; for NOEC: chronic/long-term, reproduction.
In a further series the test system is Rattus norvegicus. Conditions: for LD50: acute, mortality.
The next series concerns Oncorhynchus mykiss. Conditions: acute; duration: 96 hours; mortality.
The next series concerns Aphidius rhopalosiphi. Kind of series: LR50; higher = less toxic. The following applies: not reported; mortality.
The next series concerns Oryctolagus sp. Conditions: chronic; other.
The next series concerns Lepomis macrochirus. Conditions: chronic/long-term; other.
A further series deals with Folsomia candida. Conditions: chronic/long-term; reproduction.
A further series relates to Daphnia magna. Conditions: chronic/long-term; duration: 21 days; reproduction.
A further series deals with Apis mellifera. The following applies: acute, mortality.
The mark [1] stands for this setting: short-term, duration: 28 days, M.

Structures are written as SMILES. Values after ≈ are worked out from the molar mass of the structure shown. Some results are limits rather than exact numbers.

For orientation: NOAEL means the highest dose or exposure tested at which no adverse effect was seen. In the series with Tagia sp., `Cc1nn(-c2cc(C=CC(=O)O)c(Cl)cc2F)c(=O)n1C(F)F` displayed an LC50 above 500 mg/kg. This molecule displayed an NOAEL with Rattus norvegicus (setting [1]) of 1 mg/kg-day.
In the series on Rattus norvegicus (setting [1]), `O=C(O)c1cc(-n2ncn(C(F)F)c2=O)c(F)cc1Cl` [3-Desmethyl-F8426-benzoic acid] displayed an NOAEL of 5.4 mg/kg-day.
With `O=C(O)c1cc(-n2nc(C(=O)O)n(C(F)F)c2=O)c(F)cc1Cl` [F8426-dicarboxylic acid], in the series on Tagia sp., the NOEC came out at 0.152 mg/kg. Further, the LC50 with Oncorhynchus mykiss is above 100 µg/mL. For the same molecule, in the series with Rattus norvegicus (setting [1]), the NOAEL was 12.1 mg/kg-day.
Molecule `O=C(O)CCc1cc(-n2ncn(C(F)F)c2=O)c(F)cc1Cl` [3-Desmethyl-F8426-propionic acid] showed an NOAEL with Rattus norvegicus (short-term, M) of 1.4 mg/kg-day.
Consider `O=C(O)CCc1cc(-n2nc(CO)n(C(F)F)c2=O)c(F)cc1Cl` [3-Hydroxymethyl-F8426-propionic acid], for which the NOAEL with Rattus norvegicus (setting [1]) is 1.4 mg/kg-day.
The molecule `O=C(O)c1cc(-n2nc(CO)n(C(F)F)c2=O)c(F)cc1Cl` showed an NOEC in the series on Tagia sp. of 0.056 mg/kg. In the series on Oncorhynchus mykiss, this molecule displayed an LC50 above 100 µg/mL. The NOAEL in the series on Rattus norvegicus (setting [1]) came to 10.1 mg/kg-day.
`Cc1nn(-c2cc(C(=O)O)c(Cl)cc2F)c(=O)n1C(F)F`: the results for the LC50 in the series on Tagia sp. and with Oncorhynchus mykiss were above 1000 mg/kg and above 92.5 µg/mL, respectively. The molecule also gave an NOAEL in the series on Rattus norvegicus (setting [1]) of 5.4 mg/kg-day.
As to `Cc1n[nH]c(=O)n1C(F)F`, the LC50 in the series with Tagia sp. is above 100 mg/kg; in the series on Oncorhynchus mykiss, above 100 µg/mL. This molecule showed an NOAEL with Rattus norvegicus (subchronic, duration: 90 days, M) of 0.666 mg/kg-day.
Regarding `Cc1nn(-c2cc(CCC(=O)O)c(Cl)cc2F)c(=O)n1C(F)F`, the LC50 with Tagia sp. is above 1000 mg/kg. In addition, the NOAEL with Rattus norvegicus (short-term, M) was 1.4 mg/kg-day.
For the molecule `Cc1nn(-c2cc(CC(C(=O)O)S(=O)(=O)O)c(Cl)cc2F)c(=O)n1C(F)F` (stereo not drawn) [F8426-alpha-Sulfodeschloropropionic acid], the LC50 with Tagia sp. was above 100 mg/kg; in the series with Oncorhynchus mykiss, above 100 µg/mL. Besides, the NOAEL in the series with Rattus norvegicus (setting [1]) stood at 0.359 mg/kg-day.
For `COc1cc(-n2nc(C)n(C(F)F)c2=O)c(F)cc1Cl`, the NOEC in the series on Tagia sp. was 0.256 mg/kg. In the series on Oncorhynchus mykiss, this molecule gave an LC50 above 20.9 µg/mL. Moreover, in the series on Rattus norvegicus (setting [1]), the no-observed-adverse-effect level (NOAEL) is 8.5 mg/kg-day.
Regarding `CCOC(=O)C(Cl)Cc1cc(-n2nc(C)n(C(F)F)c2=O)c(F)cc1Cl` (configuration not stated) [Carfentrazone-ethyl], the LR50 in the series with Aphidius rhopalosiphi turned out to be 23.5 g/ha. The LC50 in the series on Tagia sp. was above 410 mg/kg; in the series on Oncorhynchus mykiss it was 1.6 µg/mL (≈ 3.88 µM). Further, the NOEC turned out to be 8 mg/kg in the series on Tagia sp.; 0.0187 mg/L in the series on Lepomis macrochirus; 94 mg/kg-day with Colinus virginianus (chronic); 0.975 mg/kg in the series with Folsomia candida; 0.22 mg/L in the series on Daphnia magna. For the same molecule, the no observed adverse effect level (NOAEL) in the series on Oryctolagus sp. is 40 mg/kg-day; with Rattus norvegicus (subchronic, duration: 90 days, oral, hematological) it was 58 mg/kg-day. In addition, the LD50 with Colinus virginianus (acute, oral, mortality) is above 2250 mg/kg-day; in the series on Rattus norvegicus (F), above 5140 mg/kg-day; in the series with Rattus norvegicus (oral, M), above 5000 mg/kg; in the series on Apis mellifera (dermal), above 81 µg/piece; in the series on Apis mellifera (oral, unspecified) it was above 81 µg/piece.
For the molecule `Cc1nn(-c2cc(CC(Cl)C(=O)O)c(Cl)cc2F)c(=O)n1C(F)F` (configuration not stated) [Carfentrazone], the LC50 in the series with Tagia sp. was above 1000 mg/kg; in the series on Oncorhynchus mykiss it was above 99.2 µg/mL.
